Experimental data reported in patent US20100166726A1, “COMPOSITIONS FOR IMPROVING CELLULAR UPTAKE OF A CHEMOTHERAPEUTIC AGENT IN A CELL EXHIBITING MUCIN DEREGULATION” (NORTHEASTERN UNIVERSITY, priority 2007, published 2010).

What was measured:
[1] = tested on: Capan-1 cells; assay: Cytotoxic activity of chemotherapeutic agents with or without benzyl-α-GalNAc pretreatment, sulforhodamine B assay; type: cell-based, human; conditions: benzyl-α-GalNAc 48 hr, then drug 24 hr
Experimental: Human pancreatic cancer cell morphology was visualized using light microscopy. Six hydrophilic chemotherapeutic agents namely cisplatin, gemcitabine, carboplatin, methotrexate, doxorubicin, vinblastine and six lipophilic agents namely lomustine, busulfan, camptothecin, etoposide, teniposide and paclitaxel with molecular weights ranging from approximately 200 to 900 were used. Two different concentrations of each drug type were evaluated in the presence and absence of heavily O-glycosylated chains with Benzyl-α-GalNAc as O-glycosylation inhibitor. Cell viability was determined using Sulforhodamine B assay. The percent change in cell viability was used to assess the overall benefit of reducing mucin in Capan-1 cells when different cytotoxic drugs are employed.
The growth inhibitory effect of the chemotherapeutic agent after 24 hr of exposure was determined by sulforhodamine B assay and percent of viable cells was calculated as follows: […]

[2] = tested on: Capan-1 cells; assay: Cellular toxicity of benzyl-α-GalNAc, sulforhodamine B assay; type: cell-based, human; conditions: 72 hr exposure
Experimental: (§1) O-glycosylation is critical for mucin formation. […] These cellular toxicity studies were performed as follows.

[3] = tested on: HPAF-II cells; assay: as above; type: cell-based, human; conditions: 72 hr exposure
Experimental: as §1

[4] = tested on: Capan-1, HPAF-II, and U-87 MG cells; assay: Cell morphology by DIC microscopy after benzyl-α-GalNAc exposure; type: cell-based, human; conditions: 72 hr exposure at maximum non-toxic concentration
Experimental: To observe the effects of benzyl-α-GalNAc exposure on cell morphology, differential interference contract (DIC) microscopy was employed. Sterile cover slips were placed in six-well plates (Corning, N.Y.). Capan-1, HPAF-II, and U-87 MG cells were next seeded at 1×10^4 per ml in the same 6-well plates.

[5] = tested on: Capan-1 cells; assay: Anti-MUC1 (CD227) antibody association after benzyl-α-GalNAc exposure (microplate fluorescence, FACS); type: cell-based, human
Experimental: (§2) In order to determine whether the concentrations of benzyl-α-GalNAc employed are sufficient to inhibit MUC1 O-glycosylation, we observed the alterations in anti-MUC1 (CD227) association after exposure to the inhibitor. The antibody association studies were performed as follows. […] After each exposure time point the cells were washed with 1×PBS and 1 ml of fresh media was added to each well. The cells were then exposed to 4 μl/well of anti-MUC1 antibody.
(§3) Fluorescence-activated cell-sorting (FACS) analysis was then performed as follows. […] After 48 hr exposure to benzyl-α-GalNAc cells were washed with 1×PBS and 1 ml of fresh media was added to each well. The cells were then exposed to 4 μl/well of CD227 antibody. Following 24 hr incubation with the antibody, cells were washed with 1×PBS to remove any unassociated antibody and cells were detached using 0.5 ml/well trypsin. Cells were then washed with 1×PBS and antibody association was determined using FACS analysis.

[6] = tested on: HPAF-II cells; assay: as above; type: cell-based, human
Experimental: as §2, §3

[7] = tested on: U-87 MG cells; assay: Anti-MUC1 (CD227) antibody association after benzyl-α-GalNAc exposure (FACS); type: cell-based, human; conditions: 48 hr exposure
Experimental: as §3

[8] = tested on: HPAF-II cells; assay: 5-FU cytotoxicity with or without benzyl-α-GalNAc pre-exposure, sulforhodamine B assay; type: cell-based, human; conditions: 48 hr exposure followed by 5-FU (108 μmol/ml) 24 hr
Experimental: The effects of increasing benzyl-α-GalNAc concentrations on cytotoxicity of 5-FU (108 μmol/ml) against HPAF-II cells was first tested. […] The growth inhibitory effect of 5-FU after 24 hr of exposure was determined using sulforhodamine B (Sigma-Aldrich, St. Louis, Mo.) assay the percent of viable cells was calculated as follows: […]

[9] = tested on: Capan-1 cells; assay: Cell viability and morphology after removal of benzyl-α-GalNAc; type: cell-based, human
Experimental: (§4) These experiments were conducted to determine whether the successful elimination of the glycosylated functional groups surrounding the MUC1 peptide core limit the capacity of cells to proliferate once benzyl-α-GalNAc has been removed. A significant change in cells' ability to multiply and divide due to exposure to benzyl-α-GalNAc would affect the measure of MUC1's role in our experiment. Capan-1 and HPAF-II cells were exposed to benzyl-α-GalNAc for 48 hr. Percent of cell viability was determined 24 hr, 48 hr, and 72 hr after removal of benzyl-α-GalNAc. […] Following 48 hr exposure to benzyl-α-GalNAc cells were washed with 1×PBS and then allowed to grow for an additional 24 hr, 48 hr, and 72 hr in fresh media.

[10] = tested on: HPAF-II cells; assay: as above; type: cell-based, human
Experimental: as §4

[11] = tested on: Capan-1 tumors; assay: MUC1 carbohydrate staining of tumors after intratumoral benzyl-α-GalNAc; type: in vivo, SCID mice; conditions: four intratumoral injections (10 mg/ml, 0.1 cc) at intervals of 48 hr
Experimental: (§5) All animal work was performed in the animal facility at Northeastern University, Boston, Mass. in accordance with the institutional guidelines. Female SCID (severe combined immunodeficient mice), 6 to 8 weeks old purchased from Massachusetts General Hospital, Boston, Mass. were used for our study since they have been used successfully for developing human xenografts of pancreatic tumors. To establish the tumors, 2.5×10^6 Capan-I cells in 0.1 ml of cell culture medium were injected into the subcutaneous dorsa of all mice. Mice were weighed daily using a digital weighing balance (AccuSeries®, Fisher Scientific, Arvada, Colo.) and tumor volumes were also measured every day using an electronic digital caliper (Control Company, Friendswood, Tex.). Tumor volumes were calculated using the formula a^2×b×0.52, where “a” is the longer diameter and “b” is the shorter diameter. […]
(§6) In order to test the in vivo effect of Benzyl-α-GalNAc in a pancreatic tumor model, Benzyl-α-GalNAc was administered locally into the tumor mass of mice via intratumoral injections (10 mg/ml, 0.1 cc). […] Following intratumoral injections, the sections of subcutaneous Capan-1 and HPAF-II tumors were analyzed for MUC1 carbohydrate staining (FIG. 7B).

[12] = tested on: HPAF-II tumors; assay: as above; type: in vivo, SCID mice; conditions: four intratumoral injections (10 mg/ml, 0.1 cc) at intervals of 48 hr
Experimental: as §5, §6

[13] = tested on: Capan-1 tumors; assay: Anti-tumoral activity in Capan-1 pancreatic tumor model (tumor volume, histochemical staining, neoplastic cell density); type: in vivo, SCID mice
Experimental: All animal work was performed in the animal facility at Northeastern University, Boston, Mass. in accordance with the institutional guidelines. Female SCID (severe combined immunodeficient mice), 6 to 8 weeks old purchased from Massachusetts General Hospital, Boston, Mass. were used for our study since they have been used successfully for developing human xenografts of pancreatic tumors. To establish the tumors, 2.5×10^6 Capan-I cells in 0.1 ml of cell culture medium were injected into the subcutaneous dorsa of all mice. Mice were weighed daily using a digital weighing balance (AccuSeries®, Fisher Scientific, Arvada, Colo.) and tumor volumes were also measured every day using an electronic digital caliper (Control Company, Friendswood, Tex.). Tumor volumes were calculated using the formula a^2×b×0.52, where “a” is the longer diameter and “b” is the shorter diameter. Once the tumor volumes were approximately 50 mm^3-70 mm^3 the experimental groups received intratumoral injections of benzyl-α-GalNAc (0.1 ml injection; 10 mg/ml) whereas […] at intervals of 48 hr. When the tumor volumes were approximately 100 mm^3 5-FU was administered via the intravenous route. Animals in treatment groups received two injections (0.1 ml) of 5-FU at interval of 4 days whereas control mice received saline (0.1 ml). The total dose of 5-FU administered was 125 mg/kg. At the end of the experiment animals were sacrificed, tumor tissue was surgically removed and fixed in 10% formalin at 4° C. for histochemical staining.
For histochemical staining, paraffin-embedded tissue sections (5 μm) were stained with hematoxylin and eosin (H&E) to evaluate and compare the extent of tissue viability. The tumor sections were scanned and qualitative images captured using brightfield microscopy (Olympus BX61WI, NY). The number of tumor cells in each section was quantified using bioquant imaging software and expressed as percent of total tumor area. To quantify the total tumor area we first traced the outline of the entire tumor section in each field of view (FOV). The pixels within the traced area were then selected and the pixel count was determined by the software. A total of five FOV were analyzed to determine the total pixel count of the tumor area. Microscope stage encoders were used to ensure that no tumor area was counted more than once. Similarly the total pixel count of the neoplastic cells featured in blue in each FOV was determined. The total percent of neoplastic cell density was calculated as follows: […]
For these studies the pancreatic cell line, Capan-1 was used to used to establish a pancreatic tumor model. Capan-1 tumors were established in subcutaneous dorsa of female SCID mice (see, Example 7). […] 5-FU therapy began when the tumor size was approximately 100 mm^3.

[14] = tested on: U-87 MG cells; conditions: 72 hr exposure
Experimental: In order to determine the contribution of MUC1 expression in the delivery of drugs such as 5-FU to pancreatic tumors, the maximum non-toxic concentration of benzyl-α-GalNAc that could be used to inhibit O-glycosylation of MUC1 was determined from cellular toxicity studies. These cellular toxicity studies were performed as follows. Cells were seeded at 1×10^4 per ml in 48-well plates. Following a 24 hr incubation period at 37° C., cells were exposed to various concentrations of benzyl-α-GalNAc solution (Sigma-Aldrich, St. Louis, Mo.) prepared in media. After 72 hr of cell exposure to benzyl-α-GalNAc, the percent of cell viability was determined using sulforhodamine B assay (Kalra et al., Pharm. Res., 23(12):2809-2817 (2006); Skehan et al., J. Natl. Cancer Inst,. 82:1107-1112 (1990)) and calculated as follows:

[15] = 24 hr, 48 hr, or 72 hr exposure at maximum non-toxic concentration
[16] = 48 hr exposure then fresh media

Row | SMILES | Percent increase in chemotherapeutic activity (chemotherapeutic benefit) when pretreated with benzyl-α-GalNAc [1] [%] | maximum non-toxic concentration [2] [mg/mL] | maximum non-toxic concentration [3] [mg/mL] | morphological structures of cells compared to cells not exposed [4] | anti-MUC1 (CD227) antibody association, fluorescence intensity vs cells not exposed [5, 15] | FACS analysis of CD227 association vs cells not exposed ([5]; 48 hr exposure) | anti-MUC1 (CD227) antibody association, fluorescence intensity vs cells not exposed [6, 15] | FACS analysis of CD227 association vs cells not exposed ([6]; 48 hr exposure) | FACS analysis of CD227 association vs cells not exposed [7] | benzyl-α-GalNAc concentration at which decrease of percent cell viability vs 5-FU alone was significant [8] [mg/mL] | effect on growth post-removal of inhibitor vs untreated controls ([9]; 0.4 mg/ml for 48 hr, then 24 hr, 48 hr, 72 hr in fresh media) | morphology (DIC images) post-removal of inhibitor [9, 16] | effect on growth post-removal of inhibitor vs untreated controls ([10]; 0.8 mg/ml for 48 hr, then 24 hr, 48 hr, 72 hr in fresh media) | morphology (DIC images) post-removal of inhibitor [10, 16] | staining for MUC1 O-glycosylation vs tumors not exposed [11] | staining for MUC1 O-glycosylation vs tumors not exposed [12] | histochemical staining of tumor sections, neoplastic cells ([13]; H&E stained sections) | tumor volume compared to control tumors (saline group) ([13]; benzyl-α-GalNAc intratumoral days 4, 6, 8, 10, 5-FU intravenous, total 125 mg/kg) | Percent Tumor Area (neoplastic cell density as percent of total tumor area) ([13]; bioquant imaging software, tumor sections at end of experiment) [%] | tolerated concentration [14] [mg/mL]
1 | N.N.O=C([O-])C1(C(=O)[O-])CCC1.[Pt+2] [Carboplatin] | 33 | – | – | – | – | – | – | – | – | – | – | – | – | – | – | – | – | – | – | –
2 | CC(=O)N[C@H]1[C@@H](OCc2ccccc2)O[C@H](CO)[C@H](O)[C@@H]1O [benzyl-α-GalNAc, benzyl-2-acetamido-2-deoxy-α-D-galactopyranoside] | – | 0.4 | 0.8 | no visible difference | significantly enhanced | shift in fluorescence peaks | significantly enhanced | shift in fluorescence peaks | no shift in peak | ≥ 0.4 | No significant effect | no visible morphological changes | No significant effect | no visible morphological changes | Lower staining | Lower staining | dense packing of neoplastic cells | No difference | 28.3 ± 1.8 | > 0.8
